Experimental data taken from patent US11389483B2, “Methods for treating pain” (Duke University, priority 2015, dated 2022).

Experiments:
BMSCs = assay: Transwell migration (chemotaxis) assay; assay type: cell-based, mice
Method: The migratory ability of BMSCs was determined using Transwell plates (Corning Costar, 6.5 mm in diameter with 8 μm pore filters). In brief, 5×10^4 cells in 100 μL, serum-free medium were added into the upper well, and 600 μL, of CXCL12-containing medium was placed in the lower well of a Transwell plate. Following incubation for 5 h (37° C., 100% humidity, 5% CO2 in air), the number of cells that had migrated to the lower side of the filter was counted under a light microscope at ×200 magnification, and the data were presented as the average number of migratory in five randomly-selected fields. Each experiment was performed in triplicate, and the data were averaged for statistical analysis.

TGF-β1 = assay: ELISA of TGF-β1 release and expression in BMSCs cultures; assay type: cell-based, mice; conditions: TNF 10 ng/mL, 60 min, LPS 100 ng/mL
Method: Tgfβ1 siRNA (Catalog: J-040652-06), Cxcr4 siRNA (Catalog: J-060184-06) and Non-targeting siRNA (Catalog: D-0018100-01-20) were purchased from Thermo Scientific Dharmacon. SiRNA was dissolved in RNase-free water at 1 μg/μL as stock solution and mixed with transfection reagent polyethyleneimine (PEI, Fermentas) and normal saline before use. Specifically, 1 μg siRNA was dissolved in 3.3 μL of PEI and 66 μL of normal saline (Kawasaki, et al. Nat. Med. 2008, 14, 331-336).
Primary cultures of BMSCs were obtained from CD-1 donor mice under aseptic conditions. The mice were sacrificed with isoflurane and the both ends of the tibiae and femurs were cut off by scissors. A syringe fitted with 20-gauge needle was inserted into the shaft of the bone, and bone marrow was flushed out with culture medium (modified Eagle's medium containing 10% fetal bovine serum, 2 mM L-glutamine, 100 U/mL penicillin and 100 μg/mL streptomycin, 250 μg/mL Fungizone, all obtained from Gibco). After the centrifuge at 1000 g for 5 min at room temperature, the pellet was resuspended in 2 mL fresh warm culture medium and mechanically dissociated, and the suspension was passed through a 40-μm cell strainer to remove debris. After the centrifuge the cells were resuspended at a concentration of 1×10^6 cells/mL. The cells were then incubated at 37° C. in 5% CO2 in 75 cm2 cell culture flasks or 6-well culture plates. […]

IL-10 = assay: ELISA of IL-10 release in BMSCs culture medium; assay type: cell-based, mice; conditions: TNF 10 ng/mL, 60 min, LPS 100 ng/mL
Method: Primary cultures of BMSCs were obtained from CD-1 donor mice under aseptic conditions. The mice were sacrificed with isoflurane and the both ends of the tibiae and femurs were cut off by scissors. A syringe fitted with 20-gauge needle was inserted into the shaft of the bone, and bone marrow was flushed out with culture medium (modified Eagle's medium containing 10% fetal bovine serum, 2 mM L-glutamine, 100 U/mL penicillin and 100 μg/mL streptomycin, 250 μg/mL Fungizone, all obtained from Gibco). After the centrifuge at 1000 g for 5 min at room temperature, the pellet was resuspended in 2 mL fresh warm culture medium and mechanically dissociated, and the suspension was passed through a 40-μm cell strainer to remove debris. After the centrifuge the cells were resuspended at a concentration of 1×10^6 cells/mL. The cells were then incubated at 37° C. in 5% CO2 in 75 cm2 cell culture flasks or 6-well culture plates. After 24 hours, cells were washed gently with PBS and replaced with fresh culture media. Adherent cells were further cultured with a medium change every 2-3 days until confluence was reached (also see FIG. 11).
Mouse TGF-β1, IL-10, and CXCL12/SDF-1α ELISA kits were purchased from R&D Systems. ELISA was performed using BMSCs culture medium or cell lysate, CSF, and DRG tissue. Cultured cells and DRGs were homogenized in a lysis buffer containing protease and phosphatase inhibitors. […]

CCI mice [1] = assay: Two-chamber conditioned place preference test for ongoing pain after CCI; assay type: in vivo; conditions: clonidine 10 μg i.t.
From the text: To test spontaneous/ongoing pain measurement, a single trial conditioning protocol for conditioned place preference (CPP) was used as described in King et al. (Nat. Neurosci. 2009, 12, 1364-1366) and Xu et al. (Ann. Neurol. 2013, 74, 490-495). All mice underwent a 3-day pre-conditioning habituation and animal behavior was video-recorded. […] On the conditioning day, mice received the vehicle (saline) control paired with a randomly chosen chamber in the morning, and then the appropriate treatment (clonidine, 10 μg, i.t.) paired with the other chamber 4 h later. Chamber pairings were counterbalanced. On the test day, 20 h following the afternoon pairing, mice were placed in the CPP box with access to both chambers and the behavior was recorded for 15 min and analyzed by ANY-maze software for chamber preference.

[2] = system: lamina IIo neurons of spinal cord slices; assay: Patch-clamp recordings of sEPSCs in spinal cord slices; assay type: cell-based, mice
Method: A portion of the lumbar spinal cord (L4-L5) was removed from mice (4-7 weeks old) under urethane anesthesia (1.5-2.0 g/kg, i.p.) and kept in pre-oxygenated ice-cold Krebs solution (Xu, et al. Ann. Neurol. 2013, 74, 490-495). Transverse slices (400-600 μm) were cut on a vibrating microslicer. The slices were perfused with Kreb's solution (8-10 mL/min) that was saturated with 95% O2 and 5% CO2 at 36° C. for at least 1-3 h prior to experiment. The Kreb's solution contained (in mM): NaCl 117, KCl 3.6, CaCl2 2.5, MgCl2 1.2, NaH2PO4 1.2, NaHCO3 25, and […]. The whole-cell patch-clamp recordings were made from lamina IIo neurons in voltage-clamp mode. Patch pipettes were fabricated from thin-walled, borosilicate, glass-capillary tubing (1.5 mm outer diameter; World Precision Instruments). After establishing the whole-cell configuration, neurons were held their holding potentials at −70 mV for recording sEPSCs. The resistance of a typical patch pipette is 5-10 M. The internal solution contained the following (in mM): 135 potassium gluconate, 5 KCl, 0.5 CaCl2, 2 MgCl2, 5 EGTA, 5 HEPES, and 5 ATP-Mg. Membrane currents were amplified with an Axopatch 200 A amplifier (Molecular Devices) in voltage-clamp mode. Signals were filtered at 2 kHz and digitized at 5 kHz. Data were stored with a personal computer using pClamp 6 software and analyzed with Mini Analysis (Synaptosoft).

CCI mice [3] = assay: CCI neuropathic pain model: mechanical allodynia (von Frey) and thermal hyperalgesia (Hargreaves); assay type: in vivo
From the text: Adult CD1 mice (male, 25-32 g) were purchased from Charles River Laboratories and used for behavioral studies and primary cultures of BMSCs. Neuropathic pain was produced by chronic constriction injury of the sciatic nerve (CCI) (Bennett, et al. J. Neurosci. 1998, 18, 3059-3072) and spared nerve injury (SNI) (Decosterd, et al. Pain 2000, 87, 149-158). For producing the CCI model animals were anesthetized with isoflurane, the left sciatic nerve was exposed, and three ligatures (7-0 prolene) were placed around the nerve proximal to the trifurcation with one millimeter between each ligature. The ligatures were loosely tied until a short flick of the ipsilateral hind limb was observed. Animals in the sham group received surgery identical to those described but without nerve ligation. Under isoflurane anesthesia, the SNI surgery was also performed with a 5.0 silk tight ligation of the tibial and common peroneal nerves followed by transection and removal of a 3-5 mm nerve portion. However, the third peripheral branch of the sciatic nerve, the sural nerve, remained intact, and any contact or stretch to this nerve was carefully avoided. All the animal procedures performed in this study were approved by the Animal Care Committee of Duke University Medical Center. TGF-β1, […] neutralizing antibody, TNF and CXCL12/SDF-1α were purchased from R&D, LPS from Sigma. AMD3100 (CXCR4 antagonist) and SB431542 (TGF-β1R inhibitor) were purchased from Selleckchem. IL-10 neutralizing antibody was purchased from Biolegend, and normal Rabbit IgG were purchased from Santa Cruz. For intrathecal injection, spinal cord puncture was made with a 30-G needle between the L5 and L6 level to deliver reagents (10 μL) or cells (1 or 2.5×10^5 cells in 10 μL PBS) to the cerebral spinal fluid (Hylden, et al. Eur. J. Pharmacol. 1980, 67, 313-316). […] Cells were then washed three times with PBS and resuspended. Animals were habituated to the testing environment daily for at least 2 days before baseline testing. The room temperature and humidity remained stable for all experiments. All the behaviors were tested blindly. For testing mechanical sensitivity, mice were confined in boxes placed on an elevated metal mesh floor and their hindpaws were stimulated with a series of von Frey hairs with logarithmically increasing stiffness (0.02-2.56 g, Stoelting), presented perpendicularly to the central plantar surface. The 50% paw withdrawal threshold was determined by Dixon's up-down method. Mechanical allodynia after SNI was also assessed by frequency response (expressed as percentage response) to a low-threshold von Frey hair (0.16 g, 10 times). […] The falling latency was recorded and averaged.

small-sized DRG neurons = assay: Whole-cell patch clamp recordings of action potentials in whole mount DRG; assay type: cell-based, mice
Method: The L4-L5 whole mount DRGs were carefully removed from the vertebral column and placed in cold oxygenated ACSF as detailed in Lee et al. (Cell 2014, 157, 1393-1404). The connective tissue was gently removed under a microscope and the ganglia were digested with a mixture of 1.0 mg/mL protease and 1.6 mg/mL collagenase (Sigma) for 30 min at 37° C. The ganglion was transferred into a holding chamber containing normal Mg2+-free ACSF with CNQX (2 μM) bubbled with 95% O2 and 5% CO2 at room temperature. Whole-cell current clamp recordings were performed at room temperature (28° C.) to measure action potentials with Axopatch-200B amplifier (Axon Instruments). The patch pipettes were pulled from borosilicate capillaries (Chase Scientific Glass Inc.). When filled with the pipette solution, the resistance of the pipettes was 4-5 MΩ. The recording chamber (300 μL) was continuously superfused (3-4 mL/min). Series resistance was compensated for (>80%), and leak subtraction was performed. Data were low-pass-filtered at 2 KHz, sampled at 10 KHz. The pClamp10 (Axon Instruments) software was used during experiments and analysis.

[4] = system: PAX-induced mechanical allodynia in mice; assay: Paclitaxel (PAX)-induced neuropathic pain model: paw withdrawal frequency to von Frey hair (0.4 g); assay type: in vivo; conditions: i.t. TGF-β1 100 ng, 7 weeks after first paclitaxel injection
Method: PAX-induced neuropathic pain (mechanical allodynia) was evaluated by paw withdrawal frequency to von Frey hair (0.4 g) stimuli (10×). Intrathecal BMSCs (2.5×10^5) produced a rapid (1 week) and long lasting (7 weeks) reduction in PAX-induced mechanical allodynia (FIG. 19B).
The analgesic efficacy of TGF-β1 was also tested in a PAX-induced neuropathic pain model. […] PAX-induced neuropathic pain was evaluated by paw withdrawal frequency to von Frey hair (0.4 g) stimuli (10×). Intrathecal TGF-β1 transiently reversed PAX-induced mechanical allodynia for 3 hours following injection (FIG. 20).

## CXCL12: chemokine, ligand of CXCR4, purchased from R&D
BMSCs; CXCL12 0-100 ng/ml
  migration of BMSCs in vitro: induced migration

## TNF-α
TGF-β1
  TGF-β1 release of BMSCs on exposure: significantly increased
IL-10
  IL-10 release of BMSCs on exposure (increase): not

## Clc1cccc(Cl)c1N=C1NCCN1 [clonidine]
CCI mice [1]
  time in chamber paired with drug versus chamber paired with vehicle (CPP): spent more time

## NC(=O)c1ccc(-c2nc(-c3ccc4c(c3)OCO4)c(-c3ccccn3)[nH]2)cc1 [SB431542, reference compound]
[2]; SB431542 10 μM
  effect on the TGF-β1 (10 ng/mL) blockade of sEPSC increases: abrogated
CCI mice [3]; SB431542 100 pmol i.t., CCI mice
  effect on the anti-allodynic and anti-hyperalgesic effects of TGF-β1 (10 ng): eliminated
small-sized DRG neurons; SB431542 10 μM
  effect on the TGF-β1 suppression of spike frequency: reversed

## TGF-β1: exogenous recombinant TGF-β1 purchased from R&D, given intrathecally or superfused
[2]; superfusion 10 ng/mL
  sEPSC frequency and amplitude in sham mice: no effects
[2]; superfusion 2 or 10 ng/mL
  time to blockade of CCI-induced sEPSC increases: 2 min
[2]; superfusion 2 or 10 ng/mL, slices from CCI mice (4 d)
  CCI-induced increases in sEPSC frequency and amplitude: blocked
CCI mice [3]; i.t. TGF-β1
  late-phase neuropathic pain on post-CCI day 21: effectively inhibited
CCI mice [3]; i.t. TGF-β1 2 ng and 10 ng
  mechanical allodynia and thermal hyperalgesia at 5 days after CCI: dose-dependently inhibited
CCI mice [3]; i.t. TGF-β1 2 and 10 ng, 5 days after CCI
  time after which the reversal of allodynia/hyperalgesia recovered: 24 h
[4]
  duration of reversal of PAX-induced mechanical allodynia following injection: 3 h
small-sized DRG neurons; TGF-β1 2 or 10 ng/mL
  CCI-induced increase in spike frequency in small-sized DRG neurons: dose-dependently suppressed
  time to suppression of the spike frequency increase: 2 to 5 min

## c1cc(CN2CCCNCCNCCCNCC2)ccc1CN1CCCNCCNCCCNCC1 [AMD3100]
BMSCs; AMD3100 5 mg/L 30 min
  CXCL12-induced migration of BMSCs: blocked
